Test results reported in ChEMBL document CHEMBL6109089, “Design, synthesis and optimization of Apcin analogues as Cdc20 inhibitors for triple-negative breast cancer therapy” (Eur J Med Chem, 2025).
The source made the active and inactive calls. The calls are words filed in the database; no cut-off is given here.

Tests used:
[1] = tested on: MCF7; test: cells; settings: Homo sapiens, MCF7, 48 h
Description: Antiproliferative activity against human MCF7 cells assessed as inhibition of cell growth measured after 48 hrs by CCK-8 method

[2] = Toxicity in BALB/c nude mouse assessed as change in ALT level in liver serum at 15 to 30 mg/kg, ip administered daily for 18 days; type: organism-based; settings: in vivo, 432 h, dose 15-30 mg/kg, time 18 day
[3] = tested on: MDA-MB-231; test: Induction of cell cycle arrest in human MDA-MB-231 cells assessed as increase in accumulation of cells at G2/M phase at 4 uM measured after 24 hrs by PI staining based flow cytometry analysis (reference value: 26.38%); type: functional
[4] = Toxicity in BALB/c nude mouse assessed as effect on liver at 15 to 30 mg/kg, ip measured after 18 days; type: organism-based; settings: in vivo, 432 h, dose 15-30 mg/kg, time 18 day
[5] = Toxicity in BALB/c nude mouse assessed as effect on kidney at 15 to 30 mg/kg, ip measured after 18 days; type: organism-based; settings: in vivo, 432 h, dose 15-30 mg/kg, time 18 day
[6] = tested on: MDA-MB-231; test: Induction of cell cycle arrest in human MDA-MB-231 cells assessed as increase in accumulation of cells at G2/M phase at 8 uM measured after 24 hrs by PI staining based flow cytometry analysis (reference value: 26.38%); type: functional
[7] = Toxicity in BALB/c nude mouse assessed as change in LDH level in heart serum at 15 to 30 mg/kg, ip administered daily for 18 days; type: organism-based; settings: in vivo, 432 h, dose 15-30 mg/kg, time 18 day
[8] = tested on: MDA-MB-231; test: Antitumor activity against human MDA-MB-231 cells xenografted in BALB/c nude mouse model assessed as reduction in tumor growth at 30 mg/kg, ip administered daily for 18 days by vernier caliper method relative to control; type: functional; parameters: scale not given: the % may be the effect or the level left; settings: time 18 day
[9] = Toxicity in BALB/c nude mouse assessed as effect on heart at 15 to 30 mg/kg, ip measured after 18 days; type: organism-based; settings: in vivo, 432 h, dose 15-30 mg/kg, time 18 day
[10] = tested on: MDA-MB-231; test: Induction of apoptosis in human MDA-MB-231 cells assessed as viable cells at 8 uM incubated for 24 hrs by Annexin V-FITC/PI staining based flow cytometry analysis (reference value: 94.1%); type: functional; settings: read-out: Activity
[11] = Toxicity in BALB/c nude mouse assessed as change in AST level in liver serum at 15 to 30 mg/kg, ip administered daily for 18 days; type: organism-based; settings: in vivo, 432 h, dose 15-30 mg/kg, time 18 day
[12] = tested on: MDA-MB-231; test: Induction of apoptosis in human MDA-MB-231 cells assessed as early apoptotic cells at 8 uM incubated for 24 hrs by Annexin V-FITC/PI staining based flow cytometry analysis (reference value: 5.40%); type: functional
[13] = Toxicity in BALB/c nude mouse assessed as change in CK level in heart serum at 15 to 30 mg/kg, ip administered daily for 18 days; type: organism-based; settings: in vivo, 432 h, dose 15-30 mg/kg, time 18 day
[14] = tested on: MDA-MB-231; test: Antitumor activity against human MDA-MB-231 cells xenografted in BALB/c nude mouse model assessed as reduction in tumor growth at 15 mg/kg, ip administered daily for 18 days by vernier caliper method relative to control; type: functional; parameters: scale not given: the % may be the effect or the level left; settings: time 18 day
[15] = tested on: MDA-MB-231; test: Antitumor activity against human MDA-MB-231 cells xenografted in BALB/c nude mouse model assessed as reduction in tumor weight at 15 to 30 mg/kg, ip administered daily for 18 days by vernier caliper method; type: functional, organism-based; settings: dose 15-30 mg/kg, time 18.0 day
[16] = tested on: MDA-MB-231; test: Induction of apoptosis in human MDA-MB-231 cells assessed as late apoptotic cells at 2 uM incubated for 24 hrs by Annexin V-FITC/PI staining based flow cytometry analysis (reference value: 0.46%); type: functional
[17] = tested on: MDA-MB-231; test: cells; settings: Homo sapiens, MDA-MB-231, 48 h
Description: Antiproliferative activity against human MDA-MB-231 cells assessed as inhibition of cell growth measured after 48 hrs by CCK-8 method

[18] = tested on: MDA-MB-231; test: Induction of apoptosis in human MDA-MB-231 cells assessed as late apoptotic cells at 8 uM incubated for 24 hrs by Annexin V-FITC/PI staining based flow cytometry analysis (reference value: 0.46%); type: functional
[19] = tested on: MDA-MB-231; test: Induction of apoptosis in human MDA-MB-231 cells assessed as early apoptotic cells at 4 uM incubated for 24 hrs by Annexin V-FITC/PI staining based flow cytometry analysis (reference value: 5.40%); type: functional
[20] = Antiproliferative activity against human HK-2 cells assessed as inhibition of cell growth measured after 48 hrs by CCK-8 method; type: toxicity, cell-based
[21] = tested on: MDA-MB-231; test: Induction of apoptosis in human MDA-MB-231 cells assessed as necrotic cells at 4 uM incubated for 24 hrs by Annexin V-FITC/PI staining based flow cytometry analysis (reference value: 0.033%); type: functional
[22] = tested on: MDA-MB-231; test: Induction of apoptosis in human MDA-MB-231 cells assessed as viable cells at 4 uM incubated for 24 hrs by Annexin V-FITC/PI staining based flow cytometry analysis (reference value: 94.1%); type: functional; settings: read-out: Activity
[23] = tested on: MDA-MB-231; test: Induction of apoptosis in human MDA-MB-231 cells assessed as late apoptotic cells at 4 uM incubated for 24 hrs by Annexin V-FITC/PI staining based flow cytometry analysis (reference value: 0.46%); type: functional
[24] = Toxicity in BALB/c nude mouse assessed as change in CREA level in kidney serum at 15 to 30 mg/kg, ip administered daily for 18 days; type: organism-based; settings: in vivo, 432 h, dose 15-30 mg/kg, time 18 day
[25] = tested on: MDA-MB-231; test: Antiproliferative activity against human MDA-MB-231 cells assessed as reduction in number of cells in S phase at 1 to 4 uM measured after 48 hrs by EdU incorporation assay; type: functional, cell-based; settings: dose 1-4 µM
[26] = tested on: MDA-MB-231; test: Induction of apoptosis in human MDA-MB-231 cells assessed as necrotic cells at 2 uM incubated for 24 hrs by Annexin V-FITC/PI staining based flow cytometry analysis (reference value: 0.033%); type: functional
[27] = tested on: MDA-MB-231; test: Antitumor activity against human MDA-MB-231 cells xenografted in BALB/c nude mouse model assessed as reduction in tumor volume at 15 to 30 mg/kg, ip administered daily for 18 days by vernier caliper method; type: functional, organism-based; settings: dose 15-30 mg/kg, time 18.0 day
[28] = tested on: MDA-MB-231; test: Induction of DNA damage in human MDA-MB-231 cells assessed as increase in gamma-H2AX fluorescence intensity at 1 to 4 uM incubated for 48 hrs by immunofluorescence staining based analysis; type: functional, cell-based; settings: dose 1-4 µM
[29] = tested on: MDA-MB-231; test: Induction of cell cycle arrest in human MDA-MB-231 cells assessed as increase in accumulation of cells at G2/M phase at 2 uM measured after 24 hrs by PI staining based flow cytometry analysis (reference value: 26.38%); type: functional
[30] = tested on: MDA-MB-231; test: Induction of apoptosis in human MDA-MB-231 cells assessed as early apoptotic cells at 2 uM incubated for 24 hrs by Annexin V-FITC/PI staining based flow cytometry analysis (reference value: 5.40%); type: functional
[31] = Toxicity in BALB/c nude mouse assessed as effect on body weight at 15 to 30 mg/kg, ip administered daily for 18 days; type: organism-based; settings: in vivo, 432 h, dose 15-30 mg/kg, time 18 day
[32] = Toxicity in BALB/c nude mouse assessed as change in BUN level in kidney serum at 15 to 30 mg/kg, ip administered daily for 18 days; type: organism-based; settings: in vivo, 432 h, dose 15-30 mg/kg, time 18 day
[33] = tested on: MDA-MB-231; test: Induction of apoptosis in human MDA-MB-231 cells assessed as necrotic cells at 8 uM incubated for 24 hrs by Annexin V-FITC/PI staining based flow cytometry analysis (reference value: 0.033%); type: functional
[34] = Antiproliferative activity against rat H9c2 cells assessed as inhibition of cell growth measured after 48 hrs by CCK-8 method; type: toxicity, cell-based
[35] = tested on: MDA-MB-231; test: Induction of DNA damage in human MDA-MB-231 cells assessed as increase in gamma-H2AX expression at 1 to 4 uM incubated for 24 hrs by Western blot analysis; type: functional, cell-based; settings: dose 1-4 µM
[36] = tested on: MDA-MB-231; test: Induction of apoptosis in human MDA-MB-231 cells assessed as increase in cleaved PARP expression at 2 to 4 uM measured after 12 hrs by Western blot analysis; type: functional, cell-based; settings: dose 2-4 µM
[37] = tested on: MDA-MB-231; test: Induction of cell cycle arrest in human MDA-MB-231 cells assessed as upregulation of phosphorylated histone H3 level at 2 to 4 uM measured after 12 hrs by Western blot analysis; type: functional, cell-based; settings: dose 2-4 µM
[38] = tested on: MDA-MB-231; test: Induction of apoptosis in human MDA-MB-231 cells assessed as viable cells at 2 uM incubated for 24 hrs by Annexin V-FITC/PI staining based flow cytometry analysis (reference value: 94.1%); type: functional; settings: read-out: Activity
[39] = tested on: MDA-MB-436; test: cells; settings: Homo sapiens, MDA-MB-436, 48 h
Description: Antiproliferative activity against human MDA-MB-436 cells assessed as inhibition of cell growth measured after 48 hrs by CCK-8 method

[40] = Antiproliferative activity against human MCF-10A cells assessed as inhibition of cell growth measured after 48 hrs by CCK-8 method; type: toxicity, cell-based
[41] = tested on: HeLa; test: Antiproliferative activity against human HeLa cells measured after 48 hrs by CCK-8 method
[42] = tested on: MDA-MB-231; test: Antiproliferative activity against human MDA-MB-231 cells measured after 3 days by CCK-8 method; settings: MDA-MB-231, 72 h
[43] = tested on: MDA-MB-435; test: Antiproliferative activity against human MDA-MB-435 cells measured after 3 days by CCK-8 method; settings: MDA-MB-435, 72 h

O=C(NC(Nc1nc(Cl)cc(Nc2ccc(C(F)(F)F)cc2)n1)C(Cl)(Cl)Cl)OCCNC(=O)c1cnc(C(F)(F)F)s1 (stereo not drawn)
IC50 [1]: 13.8 µM
Activity [2]: Non-toxic
Activity [3]: 34.91%
Activity [4]: Non-toxic
Activity [5]: Non-toxic
Activity [6]: 54.71%
Activity [7]: Non-toxic
Activity [8]: 90%
Activity [9]: Non-toxic
viability at 8 µM [10]: 52.4%
Activity [11]: Non-toxic
Activity [12]: 38.8%
Activity [13]: Non-toxic
Activity [14]: 86%
Activity [15]: Active
Activity [16]: 0.26%
IC50 [17]: 3.28 µM
Activity [18]: 7.61%
Activity [19]: 13.4%
IC50 at 48 h [20]: 23.4 µM
Activity [21]: 0.62%
viability at 4 µM [22]: 85.4%
Activity [23]: 0.62%
Activity [24]: Non-toxic
Activity [25]: Active
Activity [26]: 0.01%
Activity [27]: Active
Activity [28]: Active
Activity [29]: 26.89%
Activity [30]: 7.46%
Activity [31]: Non-toxic
Activity [32]: Non-toxic
Activity [33]: 1.1%
IC50 at 48 h [34]: 19.4 µM
Activity [35]: Active
Activity [36]: Active
Activity [37]: Active
viability at 2 µM [38]: 91.7%
IC50 [39]: 3.86 µM
IC50 at 48 h [40]: 23.9 µM

Nc1nc(F)nc2c1ncn2C(NC(=O)NCCN1CCOCC1)C(Cl)(Cl)Cl (stereo not drawn)
IC50 [41]: 0.06 µM

Cc1ncsc1-c1ccc(CNC(=O)[C@@H]2C[C@@H](O)CN2C(=O)[C@@H](NC(=O)CCOCCOCCOCCOCCOCCC(=O)NCCCOC(=O)NC(Nc2ncccn2)C(Cl)(Cl)Cl)C(C)(C)C)cc1 (stereo partly drawn)
IC50 [42]: 2.6 µM
IC50 [43]: 2 µM
